In US12465609B2, “Methods of treating patients suffering from a disease condition or disorder that is associated with an increased glutamate level” (veriNOS operations GmbH, priority 2022, dated 2025):

Legend:
[1] = system: C57 BL/6 mice, controlled cortical impact (CCI) model; assay: Controlled cortical impact (CCI) model in mice, intracranial pressure (ICP); format: in vivo; conditions: CCI mice, analogous treatment
Source text: The primary objective of this experiment was the characterization of the intracranial pressure (ICP) reduction by VAS3384 in the controlled cortical impact (CCI) model in mice. The secondary objective was characterization of the neuroprotective effect (reduction of the lesion volume) of VAS3384 in the controlled cortical impact model in mice.
• Test compound A • Denomination: VAS 3384 • Active agent: 4-Amino-4-desoxy-7,8-dihydrobiopterin-dihydrochloride, obtained from Schircks Laboratories, Bauma, Switzerland • Detailed composition: VAS 3384 dissolved in sodium phosphate buffer (PBS) pH 7.4 • Formulation method: 15 mg of the test compound (VAS 3384) are dissolved in 500 μl PBS, pH 7.4. The solution is neutralized with 72 μl 1 N NaOH and filled up with 428 μl water (check pH). • Final concentration of active agent: 15 mg/ml • Appearance: yellow, clear solution • Storage (solid test compound): −20° C. • Dose applied: 560 mg/kg or 37.3 ml/kg • Way of administration: intravenous injection/infusion • Negative control • Denomination: sodium phosphate buffer (PBS) • Active agent: none • Detailed composition: Na2HPO4, NaH2PO4, 100 mM pH 7.4 • Formulation method: ready for use • Final concentration of active agent: not applicable • Appearance: colourless, clear solution • Expiration date: 3 months after preparation • Volume applied: 37.3 ml/kg • Way of administration: intravenous injection/infusion Experimental Procedure
The animals (C57 BL/6 mice), under Dormicum/Methidomidin/Fentanyl-narcosis were fixed in a stereo tactical frame and the scalp was opened with a cut along the median. The skull bone
was laid open and disinfected with H2O2. A hole of approx. 1.2 mm diameter was then drilled into the skull (Bregma 0.4-0.4 mm). The ICP-probe was introduced through this hole. The V. jugularis was be laid open and a catheter introduced. This catheter was introduced in the neck subcutaneously and fixed on the cap of the cage with a protective spiral of metal. This setup permitted an infusion in awake animals. The skull was opened above of the right cortex and mechanically traumatized (CCI model). The skullcap was then closed with the removed bone.
Mice 1-9: 10 minutes after the trauma the animals got an intravenous bolus injection of 20 mg/kg VAS 3384 (=1.33 ml/kg) followed by an infusion of 1.5 mg/kg/min (=100 μl/kg/min) VAS 3384 over six hours to maintain the dose. After six hours, after termination of the infusion, and after 24 hours the ICP of the animals was measured. After 24 hours the animals were sacrificed, the brains dissected and the lesion volume determined by Nissl's method.
Mice 10-18: 10 minutes after the trauma the animals received an intravenous bolus injection of 1.33 ml/kg PBS followed by an infusion of 100 μl/kg/min PBS over six hours. After six hours, after the termination of the infusion, and after 24 hours the ICP of the animals was measured.
At the end of the observation period animals were sacrificed by cervical dislocation in deep halothane anaesthesia. The brains were carefully removed, frozen in powdered dry ice, and stored at −20° C. until further use. Ten μm coronal sections were prepared every 500 μm on a cryostat (CryoStar HM 560, Microm, Walldorf, Germany) and stained with cresyl violet. Sections were photographed with a digital camera system. The contusion area, the area of the non-traumatized tissue of the ipsilateral hemisphere, and the area of the contralateral hemisphere were determined on the digitized images with a standard image analysis software (Optimate 6.51, Media Cybernetics, Silver Spring, MD, USA) by an investigator blinded to the treatment of the animals. In order to correct for the swelling of contused tissue, the contusion area was calculated by subtracting the area of the non-traumatized tissue of the ipsilateral hemisphere from the area of the contralateral hemisphere. […]

[2] = system: extracellular brain glutamate level; assay: Brain microdialysis, extracellular cerebral glutamate levels in TBI patients; format: in vivo, human
Procedure: To monitor the metabolic condition of the patients, extracellular brain glutamate and lactate levels were measured. In more detail, the extracellular intracerebral glutamate and lactate levels measured here is the glutamate or lactate level in brain extracellular fluid (ECF). […] The measurements of the glutamate and lactate levels was carried out using established brain microdialysis (MD) methodology as described, for example, by Chamoun et al, example. Role of extracellular glutamate measured by cerebral microdialysis in severe traumatic brain injury. J Neurosurg. 2010 September; 113(3): 564-570.
The microdialysis (MD) equipment was obtained from M Dialysis AB, Stockholm, Sweden, see www.mdialysis.com. The following equipment was used. • Cerebral MD catheters: CMA 70 • CMA 70 bolt catheter • CMA 71 high cut-off cerebral catheter • Pumps: CMA106=fixed flow rate, CMA107=flexible flow rate • Perfusion solution: Cerebral: Perfusion fluid CNS • Analyzers: CMA 600, ISCUS, ISCUSflex Time Point of MD Catheter Insertion • Aim: Obtain stable baseline values before infusing study drug • Ideal: By 14 hours after TBI or 4 hours before study drug infusion to allow for tissue adaptation, usually lasting 1-4 hours • Compromise: As soon as possible, within 4 hours after beginning study drug infusion Site of Cerebral MD Catheter Insertion • Aim: Monitor metabolic changes close to structural damage visible on routine CT scan • Contusion: Close to the contusion • Mixed lesions: Predominantly injured hemisphere • With bolt system: Right or left frontal lobe • Without bolt system: Right or left frontal/temporal/parietal area • If possible cerebral MD catheter should be placed ipsilateral to the ICP probe • Special care should be taken to avoid inducing injury to pre- and postcentral cortex • The position of the MD probe and the position of the ICP probe in the eCRF should be indicated.
The cerebral glutamate and lactate levels were recorded every 1 h up to 5 days after the start of the infusion. Absolute values were be summarized per treatment group and for each time point by means of descriptive statistics. The 95% confidence intervals for the mean were calculated (normal approximation).
For the analysis of the metabolic state, it was considered that under normal (physiological) conditions glutamate is maintained at low levels (micromolar) in the extracellular space (<2 μmol/L) and in plasma (50-100 μmol/L) to avoid excessive glutamate receptor activation. Within the different intracellular compartments glutamate is present in higher amounts (5-15 millimolar). In brain microdialysis, glutamate levels exceeding 10 μmol/L are considered elevated, higher glutamate levels are associated with worse outcome. In addition to the absolute levels, dynamic changes are also important in interpreting underlying pathology. In brain microdialysis and blood, lactate levels exceeding 2.5 millimol/L are considered pathologically elevated, reflecting insufficient metabolic/energetic stability which is further aggravated by insufficient oxygen supply.

SMILES: C[C@H](O)[C@H](O)C1CNc2nc(N)nc(N)c2N1 (mixture of isomers) [Ronopterin, 4-Amino-(6R,S)-5,6,7,8-tetrahydro-L-biopterin]
- time ICP remained lowered after the treatment [1]: at least 18 h
- extracellular cerebral glutamate level ([2]; 18 to 39 years, infusion >12 hours after TBI, majority of patients, essentially the same as placebo (FIG. 5E)): < 10 µmol/L
- extracellular cerebral glutamate level ([2]; 18 to 39 years, infusion ≤12 h after TBI, all patients (FIG. 5B)): < 10 µmol/L
- extracellular cerebral glutamate level ([2]; 40 to 60 years, infusion >12 hours after TBI, majority of the patients (FIG. 6B)): < 10 µmol/L
- extracellular cerebral glutamate level ([2]; 40 to 60 years, infusion ≤12 h after TBI, no placebo group, not all patients <10 μmol/L (FIG. 6A)): partially lowered brain glutamate levels
- extracellular brain glutamate levels after infusion ([2]; TBI patients, within 12 hours after start of the administration): less than 10 μmol/L
- passage of the human blood brain barrier ([2]; inferred from Example 4): passes the human blood brain barrier
- extracellular cerebral glutamate level ([2]; patients aged 18 to 39 years, all times to infusion, all patients, up to 108 hours (FIG. 4B)): < 10 µmol/L
- extracellular cerebral glutamate level ([2]; patients aged 40 to 60 years, all times to infusion, majority of patients (FIG. 4E)): < 10 µmol/L
